No end group written: not given here.

This is an account of results in PMC11862134 (Nature Communications, 2025).

For one test, the system named is BAM1 and BAM3 receptor. Conditions: upon reaching the leaves, drought stress; cited from earlier work.
In test [1] the target is GST-tagged TaCLV1-LRR (extracellular domains of TaCLV1, residues 58-668) (wheat (Triticum aestivum L.)). Briefly: MST.

With “CLE25: CLE25 peptide, messenger of water deficiency from roots to leaves (RKVPNGPDPIHN; ends and bridges not checked; UniProt Q8LFL4 58-69, looked up)”, the “interaction with BAM1 and BAM3 receptor” value in the test on BAM1 and BAM3 receptor was “interacts with and activates BAM1 and BAM3 receptor”.

A word on the Kd: it is a measure of binding affinity in units of concentration. A high value points to a looser complex. Turning to RLSPGGSNPQHH [mature TaCLE24b peptide], the dissociation constant (Kd) in test [1] was 0.0194 µM.
